Target: T1, Angiotensin II Receptor (Bos taurus, UniProt P25104)
T1 construct: beef adrenal glands are processed as follows: fresh adrenal glands received on crushed ice are cleaned of fatty tissues; tissue Maxwell-Cohen (local slaughter house); host or cells: beef adrenal cortex, microsomal membranes (100,000×g pellet)
T1 sequence (P25104 1-359): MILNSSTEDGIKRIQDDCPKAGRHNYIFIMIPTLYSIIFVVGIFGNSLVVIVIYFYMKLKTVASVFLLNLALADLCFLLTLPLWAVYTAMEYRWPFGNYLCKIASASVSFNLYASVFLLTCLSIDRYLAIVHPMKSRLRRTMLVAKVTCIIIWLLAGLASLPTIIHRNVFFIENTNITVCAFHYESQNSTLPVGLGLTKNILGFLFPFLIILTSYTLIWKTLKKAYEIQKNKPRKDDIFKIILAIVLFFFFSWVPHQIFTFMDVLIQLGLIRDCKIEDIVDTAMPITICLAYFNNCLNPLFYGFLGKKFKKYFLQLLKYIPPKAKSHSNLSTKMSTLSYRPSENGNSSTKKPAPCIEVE
Assay: Receptor Binding Assay: displacement of [125I](Sar1,Ile8)AngII from beef adrenal cortex microsomal membranes
Details: 60 min room temperature
Text: Beef adrenals are obtained from a local slaughter house (Maxwell-Cohen).
[^125 I](Sar^1,Ile^8)AngII, S.A. 2200 Ci/mmole, is purchased from Dupont (NEN®, Boston, Mass.). All unlabeled AngII analogs, Dimethylsulfoxide (DMSO), nucleotides, bovine serum albumin (BSA) are purchased from Sigma Chemical Co., St. Louis, Mo. U.S.A.
Approximately sixteen (16) to twenty (20) beef adrenal glands are processed as follows: fresh adrenal glands received on crushed ice are cleaned of fatty tissues and the tough membranes encapsulating the glands are removed and discarded. The brownish tissue forming the adrenal cortex is scraped off and finely minced with scissors before homogenization. Care is taken to avoid contamination with medullary tissue during dissection. The scraped cortices are suspended in twenty volumes of an ice-cold buffer medium consisting of 10 mM Tris.HCl (pH 7.4 at 22° C.) and containing 1.0 mM EDTA and 0.2M sucrose. Unless otherwise indicated, all subsequent operations are done at 4° C. […] The homogenate is centrifuged first at low speed (3,000×g) for 10 min. The resulting pellet is discarded and the supernatant fluid recentrifuged at 10,000×g for 15 minutes to give a P2 pellet. This P2 pellet is discarded and the liquid phase is carefully decanted off in clean centrifuge tubes and recentrifuged at high speed (100,000×g) for 60 min. The translucent final pellet is harvested and combined in a small volume (20-50.0 ml) of 50.0 mM Tris.HCl buffer, pH 7.2. A 100 ul aliquot is withdrawn and the protein content of the preparation is determined by the Lowry's method (Lowry, O. H., Rosebrough, N. F., Farr, A. L. and Randall, R. J., Protein measurement with Folin phenol reagent. J. Biol. Chem., […], 265-275, 1951). The pelleted membrane is reconstituted in 50.0 mM Tris.HCl buffer containing 0.1 mM of phenylmethylsulfonyl fluoride (PMSF) to give approximately a protein concentration of 2.5 mg per ml of tissue suspension. The membrane preparation is finally aliquoted in 1.0 ml volumes and stored at -70° C. until use in the binding assays.
The binding of [^125 I](Sar^1.Ile^8)AngII to microsomal membranes is initiated by the addition of reconstituted membranes (1:10 vols.) in freshly made 50.0 mM Tris.HCl buffer, pH 7.4 containing 0.25% heat inactivated bovine serum albumin (BSA): 80 ul membrane protein (10 to 20 ug/assay) to wells already containing 100 ul of incubation buffer (as described above) and 20 ul [^125 I](Sar^1,Ile^8)AmgII (Specific Activity, 2200 Ci/mmole) Non-specific binding is measured in the presence of 1.0 uM unlabeled (Sar^1,Ile^8)AngII, added in 20 ul volume. Specific binding for [^125 I](Sar^1,Ile^8) AngII is greater than 90%. In competition studies, experimental compounds are diluted in dimethylsulfoxide (DMSO) and added in 20 ul to wells before the introduction of tissue membranes. This concentration of DMSO is found to have no negative effects on the binding of [^ 125I] (Sar^1,Ile^8) AngII to the membranes. Assays are performed in triplicate. The wells are left undisturbed for 60 min. at room temperature. […] Presoaking the filter sheet in 0.1% polyethyleneimine in normal saline (PEI/Saline) greatly reduces the radioactivity retained by the filter blanks. […] The filters are removed from the filter grid and counted in a Parkard® Cobra Gamma Counder for 1 min. […] The binding data are analyzed by the non-linear interactive "LUNDON-1" program (LUNDON SOFTWARE Inc., Cleveland, Ohio U.S.A.).

CCCCc1nc2ccc([C@H]3OC[C@@H]4ON5[C@@H](CCC5(C)C)[C@@H]43)cc2c(=O)n1Cc1ccc(-c2ccccc2-c2nnn[nH]2)cc1 (relative stereo) [Example 8, (3α, 3aα, 8aβ, 8bα)'-2-Butyl-6-(6,6-dimethylocta hydrofuro[3,4-d][1,2-b]isoxazol-3-yl)-3[[2'-(1H-tetrazol-5-yl)[1,1'biphenyl]-4yl]methyl]-4(3H) quinazolinone]
IC50: 0.037 µM

Reference: US5281604A, “Angiotensin II receptor blocking 2,3,6-substituted quinazolinones” (American Cyanamid Company, priority 1993, dated 1994)
